Data reported in patent publication US20180290964A1, “CRYSTALLINE SOLID FORMS OF THE ACETATE SALT OF (1S,3S,4R)-4-((3AS,4R,5S,7AS)-4-(AMINOMETHYL)-7A-METHYL-1-METHYLENEOCTAHYDRO-1H-INDEN-5-YL)-3-(HYDROXYMETHYL)-4-METHYLCYCLOHEXANOL” (Aquinox Pharmaceuticals (Canada) Inc., priority 2015, published 2018).
“Also recorded” adds a separate entry of the source.

Legend:
[1] = Accelerated aging analysis by XRPD (Method J); type: physicochemical; settings: 40° C. and 75% relative humidity for 48 hours (2 days)
Description: Samples collected from the crystallization conditions were subjected, as is, to accelerated aging conditions of 40° C. and 75% relative humidity for 48 hours, via standard methods and analyzed by XRPD.
Dry solid samples from Examples 1 and 2, were transferred into a boron-glass capillary with 0.3 mm outer diameter. The capillary was mounted on the goniometer head and placed in the D8 Advance Bruker-AXS Diffractometer equipped with solid state LynxEye detector. The capillary was spinning during data recording, at 15 rpm. The XRPD platform was calibrated using Silver Behenate for the long d-spacings and Corundum for the short d spacings.
Data collection for Compound 1 Form A and Compound 1 Form B, were carried out, in transmission mode, at ambient conditions (˜23° C. and ˜100 kPa) using monochromatic CuKα1 radiation (1.54056 Å) in the 2Θ region between 4° and 45°, with an exposure time of 90 s for each frame and 0.016° increments. No additional corrections were made during data collection.

[2] = Handling in the presence of water (Example 8, methanol/water 60/40), form checked by XRPD; type: physicochemical; settings: handled in the presence of water, 40% water (Example 8)
Description: 20.0 mg of amorphous Compound 1 was solid dosed in a 1.8 mL vial and 100 μL of a methanol/water mixture (60/40 (v/v)) was added at ambient temperature. The solution was subjected to a temperature profile of heating and cooling between 50° C. and 5° C. for three cycles, each heating cycle was at 10° C./hr while the cooling cycles were at −20° C./hr, −10° C./hr and −5° C./hr, for each cycle, respectively, finishing at ambient temperature. During the entire experiment the mixture was stirred at 30 rpm using a magnetic stirrer and a TEFLON®-coated magnetic stirring bar with dimensions 7mm in length and 2 mm in width.
Upon completion of the thermo-profile, the solid was collected by centrifugation (3000 rpm for 10 minutes) followed by solvent mixture removal by Pasteur pipette and dried under ambient conditions for one hour, before being analyzed by XRPD.

With `C=C1CC[C@H]2[C@H](CN)[C@@H]([C@@]3(C)CC[C@H](O)C[C@@H]3CO)CC[C@]12C.CC(=O)O` [Compound 1 Form A, acetate salt of (1S,3S,4R)-4-((3aS,4R,5S,7aS)-4-(aminomethyl)-7a-methyl-1-methyleneoctahydro-1H-inden-5-yl)-3-(hydroxymethyl)-4-methylcyclohexanol] the “Solid form stability after accelerated aging (XRPD diffractogram versus FIG. 2)” value [1] was “equivalent to FIG. 2; also recorded: without converting to another form” and the “Stability to exposure to water / hydrate formation (XRPD)” value [2] was “resistant to hydrate formation”.
